# Results published in US5180672A, “Ascorbate oxidase isolated from Acremonium sp. HI-25 ferm BP-3124” (Asahi Kasei Kogyo Kabushiki Kaisha, priority 1990, dated 1993).
# Where two headings read alike, the source gives them in different places.
# Experiments:
# [1] = tested on: ascorbate oxidase produced by Acremonium sp. HI-25; type: biochemical; conditions: for residual relative activities (%): 10 min, 1000 µM
# [2] = target: T1, ascorbate oxidase from cucumber (Toyobo ASCORBATE OXIDASE, EC 1.10.3.3) (Cucumis sativus, UniProt P14133); conditions: reference J. Biochem. 64, 189 (1968); Toyobo catalog; read-out: K m (L-ascorbate); cited from earlier work
# T1 sequence (P14133 34-587): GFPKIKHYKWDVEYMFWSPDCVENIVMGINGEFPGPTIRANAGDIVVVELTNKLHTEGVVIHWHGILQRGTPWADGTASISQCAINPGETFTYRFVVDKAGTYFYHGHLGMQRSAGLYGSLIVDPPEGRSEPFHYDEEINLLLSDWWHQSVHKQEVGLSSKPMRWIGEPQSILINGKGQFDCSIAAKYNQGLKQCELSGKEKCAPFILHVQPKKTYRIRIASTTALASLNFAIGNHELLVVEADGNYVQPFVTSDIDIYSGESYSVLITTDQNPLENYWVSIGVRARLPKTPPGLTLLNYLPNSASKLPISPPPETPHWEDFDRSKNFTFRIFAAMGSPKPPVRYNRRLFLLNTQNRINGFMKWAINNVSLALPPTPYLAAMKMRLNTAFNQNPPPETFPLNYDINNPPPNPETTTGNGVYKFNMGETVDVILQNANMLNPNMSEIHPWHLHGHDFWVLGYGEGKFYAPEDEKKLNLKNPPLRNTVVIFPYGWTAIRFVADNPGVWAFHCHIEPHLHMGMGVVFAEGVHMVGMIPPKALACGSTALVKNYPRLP
# [3] = tested on: ascorbate oxidase from Myrothecium verrucaria, hypha; conditions: at 1 mM; printed as effective (50% at 1 mM); cited from earlier work
# [4] = tested on: ascorbate oxidase from Acremonium sp. HI-25; conditions: NaN3 0.2%, 2880 min
smiles,measurement,setting,value
O=C(O)CN(CCN(CC(=O)O)CC(=O)O)CC(=O)O [EDTA],residual relative activities (%),[1],106%
"[Na+].[Na+].[S-2] [Na2 S, sodium sulfide]",residual relative activities (%),[1],3%
O=C1O[C@H]([C@@H](O)CO)C(O)=C1O [L-ascorbate],Km,[2],250 µM
"CCN(CC)C(=S)[S-].[Na+] [sodium N,N-diethyldithiocarbamate]",residual relative activities (%),[1],101%
same,inhibition by inhibitor,[3],50%
[N-]=[N+]=[N-] [sodium azide],inactivation by inhibitor (in words),[1],inactivated
same,"relative activities, 100 as buffers only",[4]; PIPES buffer with 0.1 % BSA,78.4%
same,"relative activities, 100 as buffers only",[4]; Pi buffer with 0.1 % BSA,76.2%
same,"relative activities, 100 as buffers only",[4]; Tris buffer with 0.1 % BSA,78.6%
